Data reported in US20240116845A1, “INDENE COMPOUNDS, PHARMACEUTICAL COMPOSITIONS THEREOF, AND THEIR THERAPEUTIC APPLICATIONS” (NucMito Pharmaceuticals Co., Ltd., priority 2021, published 2024).

Tests used:
Assay type in all cases: cell-based
[1] = tested on: alpha-smooth muscle actin (α-SMA); assay: Inhibition of TGF-β induced expression of alpha-smooth muscle actin in CFSC cells (western blot); settings: compound at 10 μM, TGF-β (10 ng/mL), 24 hours
Method in brief: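 Rat CCl4-treated hepatic stellate (CFSC) cells in serum-free DMEM were given compound at 10 μM plus TGF-β 10 ng/mL for 24 h at 37 °C. α-SMA measured by western blot with β-actin, bands quantified densitometrically. Percent inhibition is the decrease in band intensity versus TGF-β alone.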

[2] = tested on: B16F10 (malignant melanoma); assay: Antiproliferative activity, CCK-8 cell viability; settings: Mus musculus, B16-F10, 72 h, read-out: Inhibition of Cancerous Cells, B16F10; for inhibition at 3.3 µM: compound concentration of 3.3 μM; for inhibition at 10 µM: compound concentration of 10 μM; for inhibition at 30 µM: compound concentration of 30 μM
Method in brief: (§1)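 Cells in DMEM with 10% FBS were treated with compound at 3.3, 10 or 30 μM for 72 h at 37°C. Viability was read by CCK-8 absorbance at 450 nm and expressed relative to DMSO-treated cells. Growth inhibition was binned as ≥50%, 30–50% or <30%.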

[3] = tested on: A549 (lung adenocarcinoma); assay: Antiproliferative activity, CCK-8 cell viability; settings: Homo sapiens, 72 h, read-out: Inhibition of Cancerous Cells, A549; for inhibition at 3.3 µM: compound concentration of 3.3 μM; for inhibition at 10 µM: compound concentration of 10 μM; for inhibition at 30 µM: compound concentration of 30 μM
[4] = tested on: MDA-MB-231 (breast cancer); assay: Antiproliferative activity, CCK-8 cell viability; settings: Homo sapiens, 72 h, read-out: Inhibition of Cancerous Cells, MDA-MB-231; for inhibition at 3.3 µM: compound concentration of 3.3 μM; for inhibition at 10 µM: compound concentration of 10 μM; for inhibition at 30 µM: compound concentration of 30 μM
Method in brief: as §1

SW480 (colon cancer) = assay: Antiproliferative activity, CCK-8 cell viability; settings: Homo sapiens, 72 h, read-out: Inhibition of Cancerous Cells, SW480; for inhibition at 3.3 µM: compound concentration of 3.3 μM; for inhibition at 10 µM: compound concentration of 10 μM; for inhibition at 30 µM: compound concentration of 30 μM
Method in brief: as §1

[5] = tested on: A431 (epidermoid carcinoma); assay: Antiproliferative activity, CCK-8 cell viability; settings: Homo sapiens, A-431, 72 h, read-out: Inhibition of Cancerous Cells, A431; for inhibition at 3.3 µM: compound concentration of 3.3 μM; for inhibition at 10 µM: compound concentration of 10 μM; for inhibition at 30 µM: compound concentration of 30 μM
Method in brief: as §1

HeLa (cervical cancer) = assay: Antiproliferative activity, CCK-8 cell viability; settings: Homo sapiens, 72 h, read-out: Inhibition of Cancerous Cells, HELA; for inhibition at 3.3 µM: compound concentration of 3.3 μM; for inhibition at 10 µM: compound concentration of 10 μM; for inhibition at 30 µM: compound concentration of 30 μM
HepG2 (liver cancer) = assay: Antiproliferative activity, CCK-8 cell viability; settings: Homo sapiens, 72 h, read-out: Inhibition of Cancerous Cells, HepG2; for inhibition at 3.3 µM: compound concentration of 3.3 μM; for inhibition at 10 µM: compound concentration of 10 μM; for inhibition at 30 µM: compound concentration of 30 μM
Method in brief: as §1

Row | Compound | inhibition at 10 µM [1] [%] | inhibition at 3.3 µM [2] [%] | inhibition at 10 µM [2] [%] | inhibition at 30 µM [2] [%] | inhibition at 3.3 µM [3] [%] | inhibition at 10 µM [3] [%] | inhibition at 30 µM [3] [%] | inhibition at 3.3 µM [4] [%] | inhibition at 10 µM [4] [%] | inhibition at 30 µM [4] [%] | inhibition at 3.3 µM (SW480 (colon cancer)) [%] | inhibition at 10 µM (SW480 (colon cancer)) [%] | inhibition at 30 µM (SW480 (colon cancer)) [%] | inhibition at 3.3 µM [5] [%] | inhibition at 10 µM [5] [%] | inhibition at 30 µM [5] [%] | inhibition at 3.3 µM (HeLa (cervical cancer)) [%] | inhibition at 10 µM (HeLa (cervical cancer)) [%] | inhibition at 30 µM (HeLa (cervical cancer)) [%] | inhibition at 3.3 µM (HepG2 (liver cancer)) [%] | other results
1 | CC1=C(CC(=O)O)c2cc(F)ccc2/C1=C\c1cccc(Oc2cccc(C(F)(F)F)c2)c1 [Compound D27, 2-[(1Z)-5-Fluoro-2-methyl-1-({3-[3-trifluoromethylphenoxy]phenyl}-methylidene)-1H-inden-3-yl]acetic acid] | ≥ 80 | < 30 | 30 to 50 | ≥ 50 | 30 to 50 | 30 to 50 | ≥ 50 | ≥ 50 | ≥ 50 | ≥ 50 | 30 to 50 | ≥ 50 | ≥ 50 | < 30 | ≥ 50 | ≥ 50 | < 30 | 30 to 50 | ≥ 50 | ≥ 50 | inhibition at 10 µM (HepG2 (liver cancer)): ≥ 50%; inhibition at 30 µM (HepG2 (liver cancer)): ≥ 50%
2 | CC1=C(CC(=O)O)c2cc(F)ccc2/C1=C\c1ccc(Oc2ccc(F)c(F)c2)cc1 [Compound D5, 2-[(1Z)-5-Fluoro-2-methyl-1-({4-[3,4-difluorophenoxy]phenyl}methylidene)-1H-inden-3-yl]acetic acid] | ≥ 80 | ≥ 50 | ≥ 50 | ≥ 50 | 30 to 50 | ≥ 50 | ≥ 50 | ≥ 50 | ≥ 50 | ≥ 50 | ≥ 50 | ≥ 50 | ≥ 50 | < 30 | ≥ 50 | ≥ 50 | 30 to 50 | ≥ 50 | ≥ 50 | ≥ 50 | inhibition at 10 µM (HepG2 (liver cancer)): ≥ 50%; inhibition at 30 µM (HepG2 (liver cancer)): ≥ 50%
3 | CC1=C(CC(=O)O)c2cc(F)cc(F)c2/C1=C\c1ccc(Oc2ccc(F)cc2)cc1 [Compound D15, 2-[(1Z)-5,7-Difluoro-2-methyl-1-({4-[4-fluorophenoxy]phenyl}methylidene)-1H-inden-3-yl]acetic acid] | ≥ 80 | < 30 | 30 to 50 | ≥ 50 | 30 to 50 | ≥ 50 | ≥ 50 | ≥ 50 | ≥ 50 | ≥ 50 | < 30 | ≥ 50 | ≥ 50 | < 30 | 30 to 50 | ≥ 50 | < 30 | ≥ 50 | ≥ 50 | ≥ 50 | inhibition at 10 µM (HepG2 (liver cancer)): ≥ 50%; inhibition at 30 µM (HepG2 (liver cancer)): ≥ 50%
4 | CC1=C(CC(=O)O)c2cc(F)ccc2/C1=C\c1cccc(CCc2ccccc2)c1 [Compound A17, 2-[(1Z)-5-Fluoro-2-methyl-1-{[3-(2-phenylethyl)phenyl]methylidene}-1H-inden-3-yl]acetic acid] | < 30 | 30 to 50 | ≥ 50 | ≥ 50 | ≥ 50 | ≥ 50 | ≥ 50 | ≥ 50 | ≥ 50 | ≥ 50 | ≥ 50 | ≥ 50 | ≥ 50 | < 30 | ≥ 50 | ≥ 50 | 30 to 50 | ≥ 50 | ≥ 50 | ≥ 50 | inhibition at 10 µM (HepG2 (liver cancer)): ≥ 50%; inhibition at 30 µM (HepG2 (liver cancer)): ≥ 50%
